According to patent US10124065B2, “Lipids and lipid compositions for the delivery of active agents” (Novartis AG, priority 2013, dated 2018):

Legend:
[1] = tested on: human leptin; test: Mouse intravenous tail vein injection of modified synthetic leptin mRNA, human leptin ELISA; format: in vivo, C57BL/6 mouse; conditions: human leptin in mouse plasma, 10 μg leptin mRNA, 24 h
Protocol: Before the tail vein injection, mouse body weights were recorded and diet weighted, with mice grouped according to their body weights. Mice were prepared by warming them under a heating lamp for ˜2 minutes, with the mice about 12 inches from heat lamp.
For the tail vein injection procedure, the mice were placed in a restrainer and their tails cleaned with 70% alcohol. A 27 gauge needle (Becton Dickinson, Catalogue #305109) connected with a 1 ml syringe (Becton Dickinson, Catalogue #309659) was inserted into the tail vein, with bevel facing up, and the syringe plunger was pulled backwards to ensure blood is drawn into the syringe. The desired volume of modified synthetic leptin mRNA was injected by hand with moderate pressure and speed. The needle was then withdrawn and bleeding stopped by adding pressure to injection site with gauze.
(§1) Single housed, 8-9 week old, male C57BL/6 mice were used for the in vivo study. FPLC purified modified synthetic leptin mRNA (SEQ ID NO: 5) in which the uridines were substituted with pseudouridine was packaged in a cationic lipid (N:P molar ratio=8:1) and then were diluted in injectable saline at a dose of 10 μg per average group body weight.
On day 0, animals were weighed and sorted according to average body weight. Mice were dosed, and food intake (FI) was recorded, on each of days 1-7 and days 9, 11, and 16.
(§2) Human leptin in mouse plasma was measured by ELISA. Antibodies purchased from the R&D Systems duoset (Cat# DY398E, part#840279 for capture antibody and part#840280 for detection antibody) were reconstituted using PBS and titered, again using PBS. The capture antibody was coated at 4 ug/ml in 30 ul/well on a white Nunc® Maxisorp 384 well plate (Cat#460372). After an overnight incubation at room temperature the capture antibody was aspirated and the plate blocked for 2 hours at room temperature with 90 ul/well of KPL milk blocker (Cat#50-82-00). Once the incubation was completed the plate was aspirated and recombinant standards and samples were added to the plate at 30 ul/well for 2 hours at 37° C. while shaking at 600 rpm. Sample/standard dilutions were made using casein sample diluent. Washing/aspiration 3 times with 100 ul/well followed, using Teknova plate wash solution (Cat# P1192). Next, detection antibody was diluted using casein detection antibody diluent to 12.5 ng/ml and added at 30 ul/well for 2 hours room temperature. After this incubation, the plate was washed again and a solution of poly-streptavidin-HRP (Cat#21140) at a 1:1250 dilution in HRP dilution buffer was added to each well (30 ul/well) and incubated for 30 minutes room temperature. A final wash/aspiration removed the HRP solution and a chemiluminescent substrate was added at 30 ul/well (Cat#1859678 & 1859679). The plate was quickly read using a SpectramaxM5 plate reader with a 50 ms integration time. The dynamic range of the ELISA is from 100-2,000 pg/ml (6.25-125 pM) of human leptin.

[2] = tested on: plasma Factor VII enzyme activity; test: Mouse Factor VII dosing / Factor VII Activity Assay; format: in vivo; conditions: percent knock down of plasma Factor VII activity, CD-1 mice, 48 h; for KD FVII 0.03 mg/kg: single IV dose 0.03 mg/kg
How it was run: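 Female CD-1 mice (~25 g) received a single IV tail-vein dose of lipid-nanoparticle-formulated Factor VII siRNA (0.3 or 0.03 mg/kg). Plasma taken ~48 h later; FVII activity measured chromogenically against vehicle-control plasma standard curve, reported as % knockdown.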

[3] = tested on: human leptin; test: Mouse subcutaneous injection of modified synthetic leptin mRNA, human leptin ELISA; format: in vivo; conditions: human leptin in mouse plasma, 10 μg leptin mRNA
Protocol: Prior to subcutaneous injection, mouse body weights were recorded and diet weighted, with mice grouped according to their body weights. The mice were manually restrained and placed on a work surface. Their scruffs were pinched and lifted away from the underlying muscle, the space into which was inserted a 25 gauge needle connected with a 1 ml syringe. The syringe plunger was pulled backwards in such a way as to ensure no fluid was drawn into the syringe, and then the desired volume of leptin mRNA was hand injected with moderate pressure and speed. The needle was then withdrawn and the mice returned to their cages.
as §1, with “8-9” for “Single housed, 8-9”, “pseudouridine” for “pseudouridine was packaged in a cationic lipid”, “packaged in multiple cationic lipid” for “and then”
On day 0, animals were weighed and sorted according to average body weight. ice were dosed at 9 AM and blood was taken at 9 AM on day 0. Blood was also taken at 9 AM on each of days 1 and 2 and assessed for leptin protein levels. Body weight and food intake were also recorded.
as §2, with “leptin. The assay is applicable to plasma from mice, rats and cynomolgus monkeys.” for “leptin.”

[4] = tested on: PLK-1 mRNA; test: LS411N Xenograft Assay; format: in vivo, Nu/Nu mice; conditions: percent knock down of PLK-1 mRNA vs control in LS411N tumors, IV 3 mg/kg daily for three days
Protocol: Female Nu/Nu mice (6-8 weeks old) were implanted subcutaneously with 5×10^6 LS411N cells. Tumor growth was monitored by caliper measurement before treatment initiation. Mice bearing 150-250 mm^3 subcutaneous tumors were randomized and enrolled in the study. The stock siRNA formulations were diluted to […] with PBS for dosing. Animals enrolled in different groups received a single daily bolus IV injection of 3 mg/kg siRNA for three days. Tumors were harvested 24 hours post last injection to assess target gene regulation by qRT-PCR.
Lipid nanoparticles comprising lipid compounds of formula (I) and the PLK1-424 siRNA duplex sequence listed above were tested in the LS411N Xenograft Assay. The results of this assay are given in Table 5 below as a percent knock down of PLK-1 mRNA as compared to the control when administered as a single daily dose for three days at a dose of 3 mg/kg.

[5] = Polydispersity index (PDI) of lipid nanoparticle (dynamic light scattering); format: physicochemical
Protocol: Unless indicated otherwise, all PDIs referred to herein are the PDI of the fully formed nanoparticle, as measured by dynamic light scattering on a Malvern Zetasizer. The nanoparticle sample was diluted in phosphate buffered saline (PBS) so that the count rate was approximately 200-400 kcts. The data is presented in Tables 4 and 5 as a weighted average of the intensity measure.

[6] = Particle size of lipid nanoparticle (dynamic light scattering, Malvern Zetasizer); format: physicochemical
How it was run: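 Sizes are average diameters of fully formed nanoparticles measured by dynamic light scattering. Samples were diluted in PBS to a count rate of about 200–400 kcts. Values are intensity-weighted Z-average sizes.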

[7] = LNP Chol/DSPC/PEG-DSG 45/44/9/2
[8] = PLK1-424 siRNA LNP, Chol/DSPC/PEG-DSG 45/44/9/2

SMILES | Leptin expression IV-C57BI/6, 24 h [1] [ng/mL] | KD FVII 0.03 mg/kg ([2]; LNP Chol/DSPC/S010 45/44/9/2) [%] | Leptin expression SC-C57BI/6, 24 h [3] [ng/mL] | LS411 KD 3 × 3 mg/Kg ([4]; LNP Chol/DSPC/S010 45/44/9/2) [%] | LS411 KD 3 × 3 mg/Kg [4, 7] [%] | PDI ([5]; FVII siRNA LNP, Chol/DSPC/S010, molar ratio 45/44/9/2) | PDI [5, 8] | Size (nm) ([6]; FVII siRNA LNP, Chol/DSPC/S010, molar ratio 45/44/9/2, Z-average) | Size (nm) [6, 8] [nm] | KD FVII 0.03 mg/kg ([2]; LNP Chol/DSPC/PEG-DMG 45/44/9/2) [%] | KD FVII 0.3 mg/kg ([2]; single IV dose 0.3 mg/kg, LNP Chol/DSPC/PEG-DMG 45/44/9/2) [%]
CCCCCCCCCCCC(=O)OCCCCCCOc1cc(CN(C)C)cc(OCCCCCCOC(=O)CCCCCCCCCCC)c1 [Example 59, ((5-((dimethylamino)methyl)-1,3-phenylene)bis(oxy))bis(hexane-6,1-diyl)didodecanoate] | 8.08 | 48.24 | 1.16 |  |  |  |  |  |  |  | 
CCCCC/C=C\C/C=C\CCCCCCCC(=O)OCCCOc1cc(CN(C)C)cc(OCCCOC(=O)CCCCCCC/C=C\C/C=C\CCCCC)c1 [Example 39, (9Z,9′Z,12Z,12′Z)-((5-((dimethylamino)methyl)-1,3-phenylene)bis(oxy))bis(propane-3,1-diyl)bis(octadeca-9,12-dienoate)] | 10.47 |  | 0.79 | 55 |  |  |  |  |  |  | 
CCCCC/C=C\C/C=C\CCCCCCCC(=O)OCCCCOc1cc(CN(C)C)cc(OCCCCOC(=O)CCCCCCC/C=C\CCCCCCCC)c1 [Example 63, (9Z,12Z)-4-(3-((dimethylamino)methyl)-5-(4-(oleoyloxy)butoxy)phenoxy)butyl octadeca-9,12-dienoate] |  | 75 |  |  | 66 | 0.057 | 0.047 | 91.66 | 108.6 |  | 
CCCCCCCCCC(=O)OCCCCCCCCOc1cc(CN(C)C)cc(OCCCCCCCCOC(=O)CCCCCCCCC)c1 [Example 52, ((5-((dimethylamino)methyl)-1,3-phenylene)bis(oxy))bis(octane-8,1-diyl)bis(decanoate)] | 21.18 | 73.5 | 0.85 | 50 | 69 |  |  |  |  | 72.5 | 
CCCCCCCC(=O)OCCCCCCCCCCOc1cc(CN(C)C)cc(OCCCCCCCCCCOC(=O)CCCCCCC)c1 [Example 43, ((5-((dimethylamino)methyl)-1,3-phenylene)bis(oxy))bis(decane-10,1-diyl)dioctanoate] | 13.56 |  | 0.66 | 40 |  |  |  |  |  |  | 97.4
